Measurements: PubChem BioAssay AID1963851 (Molecular Pharmacology Branch, DTP, NCI, 2024)

Tested on: 188146-221-R-J1-PDC complex spheroid viability
Test: Anticancer human tumor 188146-221-R-J1-PDC patient-derived colon adenocarcinoma cell line growth inhibition [POLQ]
Settings: for IC50: curve of first compound; for viability, T/C: stronger effect = lower value
In short: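 Complex spheroid viability model combining PDC tumour cells with endothelial (HUVEC) and MSC stromal cells. Novobiocin, ART-558 or RP6685 were tested singly and in combination with standard and investigational anticancer drugs. Each was titrated in half-log steps from near clinical Cmax, or from 10 microM where Cmax was unknown.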

[1] = second compound 0.0316 µM, first compound 0.0316 µM
[2] = second compound 0.0316 µM, first compound 0.1 µM
[3] = second compound 0.0316 µM, first compound 0.316 µM
[4] = second compound 0.0316 µM, first compound 1 µM
[5] = second compound 0.0316 µM, first compound 3.16 µM
[6] = second compound 0.0316 µM, first compound 10 µM
[7] = second compound 0.1 µM, first compound 0.0316 µM
[8] = second compound 0.1 µM, first compound 0.1 µM
[9] = second compound 0.1 µM, first compound 0.316 µM
[10] = second compound 0.1 µM, first compound 1 µM
[11] = second compound 0.1 µM, first compound 3.16 µM
[12] = second compound 0.1 µM, first compound 10 µM
[13] = second compound 0.316 µM, first compound 0.0316 µM
[14] = second compound 0.316 µM, first compound 0.1 µM
[15] = second compound 0.316 µM, first compound 0.316 µM
[16] = second compound 0.316 µM, first compound 1 µM
[17] = second compound 0.316 µM, first compound 3.16 µM
[18] = second compound 0.316 µM, first compound 10 µM
[19] = second compound 1 µM, first compound 0.0316 µM
[20] = second compound 1 µM, first compound 0.1 µM
[21] = second compound 1 µM, first compound 0.316 µM
[22] = second compound 1 µM, first compound 1 µM
[23] = second compound 1 µM, first compound 3.16 µM
[24] = second compound 1 µM, first compound 10 µM
[25] = second compound 3.16 µM, first compound 0.0316 µM
[26] = second compound 3.16 µM, first compound 0.1 µM
[27] = second compound 3.16 µM, first compound 0.316 µM
[28] = second compound 3.16 µM, first compound 1 µM
[29] = second compound 3.16 µM, first compound 3.16 µM
[30] = second compound 3.16 µM, first compound 10 µM
[31] = second compound 10 µM, first compound 0.0316 µM
[32] = second compound 10 µM, first compound 0.1 µM
[33] = second compound 10 µM, first compound 0.316 µM
[34] = second compound 10 µM, first compound 1 µM
[35] = second compound 10 µM, first compound 3.16 µM
[36] = second compound 10 µM, first compound 10 µM
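Further: spheroids exposed to compounds for seven days.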
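Wherever viability, T/C is given: 100% = DMSO vehicle control viability.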

CC1COCCN1c1cc(C2(S(C)(=N)=O)CC2)nc(-c2ccnc3[nH]ccc23)n1 (centres undefined) + Cc1cccc(N(C)C(=O)C2C(O)CCN2c2nc(C)cc(C(F)(F)F)c2C#N)c1
IC50 (second compound 0.0316 µM): 4.9 µM | IC50 (second compound 0.1 µM): 4.65 µM | IC50 (second compound 0.316 µM): 5.33 µM | IC50 (second compound 1 µM): 4.36 µM | IC50 (second compound 3.16 µM): 4.9 µM | IC50 (second compound 10 µM): 3.21 µM | viability, T/C [1]: 108% | viability, T/C [2]: 92.9% | viability, T/C [3]: 97.6% | viability, T/C [4]: 95.7% | viability, T/C [5]: 65.2% | viability, T/C [6]: 25.1% | viability, T/C [7]: 114% | viability, T/C [8]: 98.3% | viability, T/C [9]: 93.9% | viability, T/C [10]: 89.1% | viability, T/C [11]: 58.7% | viability, T/C [12]: 27.7% | viability, T/C [13]: 98.4% | viability, T/C [14]: 96.9% | viability, T/C [15]: 97.9% | viability, T/C [16]: 90.2% | viability, T/C [17]: 68.5% | viability, T/C [18]: 27.8% | viability, T/C [19]: 101% | viability, T/C [20]: 91% | viability, T/C [21]: 95.7% | viability, T/C [22]: 91.4% | viability, T/C [23]: 58.2% | viability, T/C [24]: 28.9% | viability, T/C [25]: 88.5% | viability, T/C [26]: 103% | viability, T/C [27]: 81.4% | viability, T/C [28]: 83.8% | viability, T/C [29]: 63.8% | viability, T/C [30]: 27.2% | viability, T/C [31]: 90% | viability, T/C [32]: 78.5% | viability, T/C [33]: 88.8% | viability, T/C [34]: 62% | viability, T/C [35]: 53.2% | viability, T/C [36]: 19.4%

COc1ccc([C@@H](O)c2cc(-c3ncnc4cc(N5CCOCC5)ccc34)c(F)cc2Cl)nn1 + Cc1cccc(N(C)C(=O)C2C(O)CCN2c2nc(C)cc(C(F)(F)F)c2C#N)c1
IC50 (second compound 0.0316 µM): 5.81 µM | IC50 (second compound 0.1 µM): 5.62 µM | IC50 (second compound 0.316 µM): 4.69 µM | IC50 (second compound 1 µM): 4.67 µM | IC50 (second compound 3.16 µM): 4.91 µM | IC50 (second compound 10 µM): 1.86 µM | viability, T/C [1]: 97.6% | viability, T/C [2]: 98% | viability, T/C [3]: 87.9% | viability, T/C [4]: 89.2% | viability, T/C [5]: 72% | viability, T/C [6]: 30.3% | viability, T/C [7]: 93.6% | viability, T/C [8]: 111% | viability, T/C [9]: 94.3% | viability, T/C [10]: 80.4% | viability, T/C [11]: 61.7% | viability, T/C [12]: 39.4% | viability, T/C [13]: 100% | viability, T/C [14]: 101% | viability, T/C [15]: 100% | viability, T/C [16]: 94% | viability, T/C [17]: 59.4% | viability, T/C [18]: 32% | viability, T/C [19]: 97.9% | viability, T/C [20]: 94.3% | viability, T/C [21]: 94.4% | viability, T/C [22]: 78.7% | viability, T/C [23]: 59.6% | viability, T/C [24]: 32.5% | viability, T/C [25]: 97.3% | viability, T/C [26]: 93.3% | viability, T/C [27]: 90.5% | viability, T/C [28]: 73.1% | viability, T/C [29]: 61.7% | viability, T/C [30]: 33.8% | viability, T/C [31]: 88.2% | viability, T/C [32]: 80.8% | viability, T/C [33]: 85.9% | viability, T/C [34]: 56.3% | viability, T/C [35]: 51.9% | viability, T/C [36]: 36.9%
